Results on two molecules are retold here after ChEMBL document CHEMBL1201862, “PubChem BioAssay data set” (2004).

What all share (format): functional
The target in test [1] is T1, Serine/threonine-protein kinase TBK1 (Homo sapiens, UniProt Q9UHD2).
T1 sequence (Q9UHD2 whole entry): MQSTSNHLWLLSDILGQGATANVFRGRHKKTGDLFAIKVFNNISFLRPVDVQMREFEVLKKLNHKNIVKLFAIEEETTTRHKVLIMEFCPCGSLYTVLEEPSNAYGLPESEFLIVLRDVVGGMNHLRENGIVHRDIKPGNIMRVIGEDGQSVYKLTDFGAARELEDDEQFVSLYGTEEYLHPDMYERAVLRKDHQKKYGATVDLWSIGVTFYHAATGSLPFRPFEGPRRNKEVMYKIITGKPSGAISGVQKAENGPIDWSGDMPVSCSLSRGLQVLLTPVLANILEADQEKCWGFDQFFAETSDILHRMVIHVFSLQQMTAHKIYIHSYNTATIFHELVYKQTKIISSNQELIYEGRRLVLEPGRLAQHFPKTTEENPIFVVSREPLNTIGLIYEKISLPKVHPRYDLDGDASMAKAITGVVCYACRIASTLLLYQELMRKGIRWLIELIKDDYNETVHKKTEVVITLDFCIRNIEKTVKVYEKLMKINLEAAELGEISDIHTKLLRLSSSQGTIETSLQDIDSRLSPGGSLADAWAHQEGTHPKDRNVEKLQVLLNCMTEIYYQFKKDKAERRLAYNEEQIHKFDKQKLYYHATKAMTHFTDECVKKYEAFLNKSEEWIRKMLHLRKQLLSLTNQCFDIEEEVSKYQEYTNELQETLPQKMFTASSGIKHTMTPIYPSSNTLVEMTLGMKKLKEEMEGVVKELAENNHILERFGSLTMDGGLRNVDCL
The test can be described thus: Navigating the Kinome. Panel member name: TBK1.

In another test the target is T2, Activin receptor type-1 (Homo sapiens, UniProt Q04771).
T2 sequence (Q04771 whole entry): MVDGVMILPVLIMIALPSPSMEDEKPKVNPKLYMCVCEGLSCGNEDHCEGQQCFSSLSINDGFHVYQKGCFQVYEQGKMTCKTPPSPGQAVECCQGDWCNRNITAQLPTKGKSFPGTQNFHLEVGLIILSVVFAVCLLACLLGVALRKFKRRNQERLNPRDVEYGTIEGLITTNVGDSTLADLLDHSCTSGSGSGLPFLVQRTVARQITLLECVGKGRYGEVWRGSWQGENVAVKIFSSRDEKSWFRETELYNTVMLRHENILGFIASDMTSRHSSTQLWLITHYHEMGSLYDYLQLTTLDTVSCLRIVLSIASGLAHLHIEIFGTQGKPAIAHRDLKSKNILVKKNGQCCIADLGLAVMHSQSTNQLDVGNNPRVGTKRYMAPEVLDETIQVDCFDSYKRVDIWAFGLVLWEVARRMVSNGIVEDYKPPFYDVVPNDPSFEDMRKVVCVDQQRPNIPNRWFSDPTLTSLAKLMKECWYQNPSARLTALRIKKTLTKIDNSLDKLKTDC
The test can be described thus: Navigating the Kinome. Panel member name: ACVR1.

In test [2] the target is T3, Tyrosine-protein kinase JAK3 (Homo sapiens, UniProt P52333).
T3 sequence (P52333 whole entry): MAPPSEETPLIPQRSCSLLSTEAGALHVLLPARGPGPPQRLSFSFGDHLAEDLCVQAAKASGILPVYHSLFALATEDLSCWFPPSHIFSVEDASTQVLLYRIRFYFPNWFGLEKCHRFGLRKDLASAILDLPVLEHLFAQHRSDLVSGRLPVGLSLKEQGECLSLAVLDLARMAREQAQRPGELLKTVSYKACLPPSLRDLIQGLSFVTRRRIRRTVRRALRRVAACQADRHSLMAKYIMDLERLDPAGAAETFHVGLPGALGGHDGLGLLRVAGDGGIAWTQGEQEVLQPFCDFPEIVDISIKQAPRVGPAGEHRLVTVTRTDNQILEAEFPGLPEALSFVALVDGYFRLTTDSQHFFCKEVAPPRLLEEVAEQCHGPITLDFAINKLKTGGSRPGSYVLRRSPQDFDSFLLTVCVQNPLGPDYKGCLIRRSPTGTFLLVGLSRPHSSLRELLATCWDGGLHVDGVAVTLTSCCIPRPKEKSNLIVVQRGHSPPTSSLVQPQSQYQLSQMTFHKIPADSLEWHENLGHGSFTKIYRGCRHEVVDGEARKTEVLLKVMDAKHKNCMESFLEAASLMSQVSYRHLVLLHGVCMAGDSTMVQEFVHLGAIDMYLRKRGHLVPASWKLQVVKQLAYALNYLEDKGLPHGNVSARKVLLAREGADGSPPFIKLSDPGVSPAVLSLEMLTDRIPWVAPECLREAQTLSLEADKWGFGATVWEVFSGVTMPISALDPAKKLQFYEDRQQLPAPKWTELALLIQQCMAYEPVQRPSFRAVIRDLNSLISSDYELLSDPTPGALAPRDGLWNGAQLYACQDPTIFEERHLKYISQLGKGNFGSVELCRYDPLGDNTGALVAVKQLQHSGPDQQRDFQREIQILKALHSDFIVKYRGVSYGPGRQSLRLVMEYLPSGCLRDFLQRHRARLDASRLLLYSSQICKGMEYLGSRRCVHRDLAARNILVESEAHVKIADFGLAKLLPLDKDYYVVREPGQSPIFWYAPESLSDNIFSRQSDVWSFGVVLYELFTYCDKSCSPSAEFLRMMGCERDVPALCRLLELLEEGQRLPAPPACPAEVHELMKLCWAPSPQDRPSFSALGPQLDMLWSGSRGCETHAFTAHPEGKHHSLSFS

In test [3] the target is Mitogen-activated protein kinase 9 (Homo sapiens, UniProt P45984).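 Note: value from a kinome panel profiling assay, MAPK9 panel entry.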
Chain of Mitogen-activated protein kinase 9 (P45984 whole entry): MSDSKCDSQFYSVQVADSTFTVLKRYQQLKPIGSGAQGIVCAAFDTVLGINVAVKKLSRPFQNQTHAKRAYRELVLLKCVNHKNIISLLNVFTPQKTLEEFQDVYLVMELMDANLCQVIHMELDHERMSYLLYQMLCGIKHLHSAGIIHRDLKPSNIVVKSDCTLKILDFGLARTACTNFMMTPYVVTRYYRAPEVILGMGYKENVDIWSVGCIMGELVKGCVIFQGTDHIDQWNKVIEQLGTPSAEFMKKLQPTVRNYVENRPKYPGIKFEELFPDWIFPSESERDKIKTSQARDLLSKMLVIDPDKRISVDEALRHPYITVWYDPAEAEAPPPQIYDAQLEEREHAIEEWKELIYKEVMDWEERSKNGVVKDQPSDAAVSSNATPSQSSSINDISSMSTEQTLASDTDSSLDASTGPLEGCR
In a further test the target is Activated CDC42 kinase 1 (Homo sapiens, UniProt Q07912). The experiment in a line: Navigating the Kinome. Panel member name: ACK1.
Chain of Activated CDC42 kinase 1 (Q07912 whole entry): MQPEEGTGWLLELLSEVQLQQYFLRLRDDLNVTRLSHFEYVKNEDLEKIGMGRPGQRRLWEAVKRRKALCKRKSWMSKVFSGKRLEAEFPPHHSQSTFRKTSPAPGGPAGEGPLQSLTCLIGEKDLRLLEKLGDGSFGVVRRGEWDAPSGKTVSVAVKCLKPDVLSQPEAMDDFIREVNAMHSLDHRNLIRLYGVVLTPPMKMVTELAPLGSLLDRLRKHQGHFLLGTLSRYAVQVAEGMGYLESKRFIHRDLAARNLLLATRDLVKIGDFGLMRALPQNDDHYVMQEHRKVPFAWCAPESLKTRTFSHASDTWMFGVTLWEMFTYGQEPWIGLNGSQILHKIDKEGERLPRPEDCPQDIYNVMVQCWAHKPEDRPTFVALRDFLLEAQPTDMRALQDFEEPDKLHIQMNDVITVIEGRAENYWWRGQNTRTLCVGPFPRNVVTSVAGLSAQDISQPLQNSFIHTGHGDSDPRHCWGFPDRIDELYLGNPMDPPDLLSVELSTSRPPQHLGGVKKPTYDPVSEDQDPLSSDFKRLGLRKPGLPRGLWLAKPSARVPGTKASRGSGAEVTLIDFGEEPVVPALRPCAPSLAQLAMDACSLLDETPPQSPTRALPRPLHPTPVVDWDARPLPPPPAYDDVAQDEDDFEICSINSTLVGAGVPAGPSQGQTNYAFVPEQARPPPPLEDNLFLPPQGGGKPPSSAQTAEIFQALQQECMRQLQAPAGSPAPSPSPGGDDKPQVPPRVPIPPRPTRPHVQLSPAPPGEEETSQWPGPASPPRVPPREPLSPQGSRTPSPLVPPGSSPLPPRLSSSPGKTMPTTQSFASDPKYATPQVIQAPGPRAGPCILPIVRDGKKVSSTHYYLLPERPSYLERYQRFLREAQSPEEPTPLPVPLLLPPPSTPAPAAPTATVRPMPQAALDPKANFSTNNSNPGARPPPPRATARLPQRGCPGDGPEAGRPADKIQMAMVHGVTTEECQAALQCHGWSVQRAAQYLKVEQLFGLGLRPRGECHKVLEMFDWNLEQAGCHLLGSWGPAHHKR
Test [4] deals with Insulin-like growth factor 1 receptor (Homo sapiens, UniProt P08069). The experiment in a line: Navigating the Kinome. Panel member name: IGF1R.
The target of test [5] is Rho-associated protein kinase 1 (Homo sapiens, UniProt Q13464).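 Note: measured within a broad kinome-wide panel profiling many kinases.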
Chain of Rho-associated protein kinase 1 (Q13464 whole entry): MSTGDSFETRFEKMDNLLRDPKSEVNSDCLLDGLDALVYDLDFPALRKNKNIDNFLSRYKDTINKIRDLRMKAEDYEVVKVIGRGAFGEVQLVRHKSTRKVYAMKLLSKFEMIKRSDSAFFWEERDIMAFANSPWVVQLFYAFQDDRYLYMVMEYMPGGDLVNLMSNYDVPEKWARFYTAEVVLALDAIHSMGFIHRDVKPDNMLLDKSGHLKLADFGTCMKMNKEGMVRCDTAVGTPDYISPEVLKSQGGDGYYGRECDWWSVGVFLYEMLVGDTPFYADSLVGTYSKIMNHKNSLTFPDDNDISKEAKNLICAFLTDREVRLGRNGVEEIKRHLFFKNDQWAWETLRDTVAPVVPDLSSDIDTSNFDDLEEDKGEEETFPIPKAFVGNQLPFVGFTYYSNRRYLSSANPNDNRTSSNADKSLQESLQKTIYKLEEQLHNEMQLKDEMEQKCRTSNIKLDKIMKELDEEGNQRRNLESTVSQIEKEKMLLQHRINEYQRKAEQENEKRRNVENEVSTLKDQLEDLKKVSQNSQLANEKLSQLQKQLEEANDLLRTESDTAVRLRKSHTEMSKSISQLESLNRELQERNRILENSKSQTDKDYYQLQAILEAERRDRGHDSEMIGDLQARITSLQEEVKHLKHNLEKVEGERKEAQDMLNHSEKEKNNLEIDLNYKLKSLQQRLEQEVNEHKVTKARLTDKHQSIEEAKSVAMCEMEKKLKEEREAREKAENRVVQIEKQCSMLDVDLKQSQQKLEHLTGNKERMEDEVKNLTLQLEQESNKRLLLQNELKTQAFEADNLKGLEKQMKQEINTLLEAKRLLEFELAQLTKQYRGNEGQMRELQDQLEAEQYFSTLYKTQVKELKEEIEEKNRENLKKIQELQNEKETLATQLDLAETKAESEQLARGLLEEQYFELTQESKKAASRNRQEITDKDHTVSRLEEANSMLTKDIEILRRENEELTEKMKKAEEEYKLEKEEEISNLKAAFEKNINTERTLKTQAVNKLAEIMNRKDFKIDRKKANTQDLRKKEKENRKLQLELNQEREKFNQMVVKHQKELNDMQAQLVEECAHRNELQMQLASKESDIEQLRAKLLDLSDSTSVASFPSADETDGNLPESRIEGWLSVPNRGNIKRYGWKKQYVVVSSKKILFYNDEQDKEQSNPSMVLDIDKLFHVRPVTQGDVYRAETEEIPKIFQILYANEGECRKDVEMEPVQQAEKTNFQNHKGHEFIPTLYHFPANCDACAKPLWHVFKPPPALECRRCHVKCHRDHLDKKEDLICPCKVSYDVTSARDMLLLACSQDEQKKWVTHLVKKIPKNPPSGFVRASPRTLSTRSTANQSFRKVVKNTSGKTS
Test [6] concerns the target Cyclin-dependent kinase 9 (Homo sapiens, UniProt P50750).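 Note: value from the CDK9 entry of a kinome-spanning kinase panel.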
The target in test [7] is Macrophage colony-stimulating factor 1 receptor (Homo sapiens, UniProt P07333).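 Note: value comes from the Navigating the Kinome screening panel, CSF1R member.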
Chain of Macrophage colony-stimulating factor 1 receptor (P07333 whole entry): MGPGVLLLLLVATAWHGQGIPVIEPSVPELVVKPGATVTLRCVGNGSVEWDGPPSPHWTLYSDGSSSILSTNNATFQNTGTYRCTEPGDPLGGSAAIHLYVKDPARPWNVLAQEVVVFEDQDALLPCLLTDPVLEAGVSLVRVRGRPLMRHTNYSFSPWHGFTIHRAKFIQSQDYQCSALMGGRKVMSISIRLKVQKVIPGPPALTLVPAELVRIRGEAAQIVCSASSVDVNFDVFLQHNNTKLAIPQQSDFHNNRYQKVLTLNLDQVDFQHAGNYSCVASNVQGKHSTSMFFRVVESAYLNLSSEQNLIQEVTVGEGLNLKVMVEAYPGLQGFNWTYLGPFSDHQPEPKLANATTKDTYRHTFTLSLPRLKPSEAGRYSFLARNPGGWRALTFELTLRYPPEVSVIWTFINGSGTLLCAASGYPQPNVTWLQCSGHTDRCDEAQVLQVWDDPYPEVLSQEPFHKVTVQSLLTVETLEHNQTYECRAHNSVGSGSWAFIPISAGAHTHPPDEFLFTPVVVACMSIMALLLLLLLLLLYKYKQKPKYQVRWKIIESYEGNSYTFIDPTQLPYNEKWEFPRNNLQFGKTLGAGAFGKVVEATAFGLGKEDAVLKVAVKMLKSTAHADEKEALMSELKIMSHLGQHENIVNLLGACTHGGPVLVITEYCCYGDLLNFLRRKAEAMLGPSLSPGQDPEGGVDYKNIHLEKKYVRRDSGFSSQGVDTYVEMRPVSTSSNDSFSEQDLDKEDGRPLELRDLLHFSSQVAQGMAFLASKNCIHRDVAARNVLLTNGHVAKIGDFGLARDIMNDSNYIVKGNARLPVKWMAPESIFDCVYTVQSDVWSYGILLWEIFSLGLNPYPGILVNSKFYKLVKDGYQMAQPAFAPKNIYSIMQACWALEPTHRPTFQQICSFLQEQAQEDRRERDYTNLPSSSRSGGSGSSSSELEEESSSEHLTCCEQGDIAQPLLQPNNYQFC
Test [8] deals with Mitogen-activated protein kinase 14 (Homo sapiens, UniProt Q16539).
Chain of Mitogen-activated protein kinase 14 (Q16539 whole entry): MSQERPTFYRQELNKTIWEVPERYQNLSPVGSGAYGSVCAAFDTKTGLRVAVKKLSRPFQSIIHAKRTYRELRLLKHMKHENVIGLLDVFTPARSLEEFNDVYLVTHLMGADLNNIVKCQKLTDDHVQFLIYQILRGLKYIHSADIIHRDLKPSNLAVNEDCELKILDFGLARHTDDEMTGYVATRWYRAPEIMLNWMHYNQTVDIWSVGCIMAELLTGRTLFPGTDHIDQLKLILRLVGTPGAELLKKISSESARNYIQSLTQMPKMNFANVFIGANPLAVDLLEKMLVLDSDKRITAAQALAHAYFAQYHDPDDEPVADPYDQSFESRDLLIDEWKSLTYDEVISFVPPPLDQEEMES

SMILES strings stand for the structures. The source made the active and inactive calls. A value given as a limit tells only on which side of the number the result lay.

Chain of Cyclin-dependent kinase 9 (P50750 whole entry): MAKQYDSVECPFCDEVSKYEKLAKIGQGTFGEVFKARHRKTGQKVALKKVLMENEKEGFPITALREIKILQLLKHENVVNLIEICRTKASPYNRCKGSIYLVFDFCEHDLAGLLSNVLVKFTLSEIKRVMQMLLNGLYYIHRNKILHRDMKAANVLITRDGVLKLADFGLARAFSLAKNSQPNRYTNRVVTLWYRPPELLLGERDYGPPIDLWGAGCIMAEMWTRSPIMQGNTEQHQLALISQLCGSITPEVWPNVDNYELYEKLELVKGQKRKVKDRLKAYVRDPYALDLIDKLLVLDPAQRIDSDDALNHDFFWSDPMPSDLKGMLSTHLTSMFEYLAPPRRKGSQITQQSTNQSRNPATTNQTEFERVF

As usually defined, the Ki is the equilibrium dissociation constant of an inhibitor or competing ligand from its target. A word on the pKi: it is the Ki on a negative log10 scale, so that one unit is a factor of ten. Turning to `OC1CCC(Nc2nc(Cl)cc(-c3c[nH]c4ncccc34)n2)CC1` (stereo not drawn), the Ki in [1] was 1000 nM (active); at Activin receptor type-1 it was 1260 nM (active); in test [2], 50.1 nM (active); in test [3], 251 nM (active); on Activated CDC42 kinase 1, 3160 nM (active); in test [4], > 2000 nM (inactive). Also, the Ki is 7.94 nM (active) in test [5], 1.26 nM (active) in test [6], 200 nM (active) in [7] and > 3980 nM (inactive) in test [8]. The pKi amounted to 6 in [1]; 5.9 on Activin receptor type-1; 7.3 in [2]; 6.6 in test [3]; 5.5 at Activated CDC42 kinase 1; 8.1 in [5]. The results for the pKi in [6] and in [7] were 8.9 and 6.7, respectively.
Take `COc1cccc(CNC(=O)c2cnc(-c3ccncc3)nc2)c1`: the Ki was > 3160 nM (inactive) in test [1]; > 3980 nM (inactive) at Activin receptor type-1; > 5010 nM (inactive) in test [2]; > 3980 nM (inactive) in test [3]; > 3980 nM (inactive) on Activated CDC42 kinase 1; > 2510 nM (inactive) in test [4]. The Ki in test [5] is 25.1 nM (active); in test [6], > 1580 nM (inactive); in [7] it was > 2510 nM (inactive); in [8], > 3980 nM (inactive).
